# Literature values as cited in US11398630B2, “Method of generating energy from a hydrazide containing anode fuel, and fuel cell” (priority 2019, dated 2022).
# Like-named read-outs stand apart in the source and are kept apart here.
# What was measured:
# [1] = ambient conditions
SMILES,"Toxicity-LD50 oral rat (rat; oral, rat)",also measured
OCC(O)CO [Glycerol],">5,000 mg/kg",
CO [Methanol],">5,000 mg/kg",
B [Borohydride],160 mg/kg,
"NNC(=O)NN [Carbohydrazide, carbohydrazide]",">5,000 mg/kg","miscibility with water [1]: ^aUnder ambient conditions, carbohydrazide is a solid, but it is completely miscible with water.; toxicity in words (rat; compared with hydrazine): nontoxic; LD50 (rat; rat, printed as mg/kg-rat, route not given): > 5,000 mg/kg"
CCO [Ethanol],,"Toxicity-LD50 oral rat (rat; rat, in vivo, po): >5,000 mg/kg"
COC [Dimethyl ether],">5,000 mg/kg",
